Each structure is given as a SMILES string.

Among the data in ChEMBL document CHEMBL4219148, “Discovery of a highly potent orally bioavailable imidazo-[1, 2-a]pyrazine Aurora inhibitor” (Bioorg Med Chem Lett, 2018) are EC50 and IC50 values, retold here.

In one test the target is Aurora kinase B (Homo sapiens, UniProt Q96GD4). As to the kind of experiment: Inhibition of Aurora B in human HCT116 cells assessed as reduction in phosphorylation of Histone H3 at Ser10 residue incubated for 1 hr by Hoechst 33342 dye-based immunofluorescence microscopic method. It is filed as cell-based.
Chain of Aurora kinase B (Q96GD4 whole entry): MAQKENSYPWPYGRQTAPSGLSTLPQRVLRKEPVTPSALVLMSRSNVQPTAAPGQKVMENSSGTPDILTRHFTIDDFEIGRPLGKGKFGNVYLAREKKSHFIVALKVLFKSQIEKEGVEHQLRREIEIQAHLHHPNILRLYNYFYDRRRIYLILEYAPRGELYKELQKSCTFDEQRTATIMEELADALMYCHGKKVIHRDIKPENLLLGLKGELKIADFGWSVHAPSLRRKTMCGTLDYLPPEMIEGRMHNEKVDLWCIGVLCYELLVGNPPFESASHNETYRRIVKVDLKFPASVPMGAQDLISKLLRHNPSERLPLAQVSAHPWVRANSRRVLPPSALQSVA
Test [1] has as its target T1, Serine/threonine-protein kinase Chk1 (Homo sapiens, UniProt O14757).
T1 sequence (O14757 whole entry): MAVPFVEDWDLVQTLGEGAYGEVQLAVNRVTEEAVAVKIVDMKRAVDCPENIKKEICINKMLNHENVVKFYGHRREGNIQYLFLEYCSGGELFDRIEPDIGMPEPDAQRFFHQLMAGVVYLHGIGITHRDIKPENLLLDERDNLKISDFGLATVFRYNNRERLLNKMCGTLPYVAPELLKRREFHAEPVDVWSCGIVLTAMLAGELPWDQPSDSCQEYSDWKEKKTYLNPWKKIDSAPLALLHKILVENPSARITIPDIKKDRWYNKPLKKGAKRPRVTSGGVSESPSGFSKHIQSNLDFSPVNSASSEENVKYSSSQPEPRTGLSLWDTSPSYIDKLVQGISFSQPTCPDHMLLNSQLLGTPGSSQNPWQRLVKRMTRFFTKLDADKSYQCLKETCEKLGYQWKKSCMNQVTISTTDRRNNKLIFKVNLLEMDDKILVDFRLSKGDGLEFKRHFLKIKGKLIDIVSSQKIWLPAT
Briefly: Inhibition of CHK1 (unknown origin).

The target of the next test is T2, Ephrin type-B receptor 4 (Homo sapiens, UniProt P54760).
T2 sequence (P54760 whole entry): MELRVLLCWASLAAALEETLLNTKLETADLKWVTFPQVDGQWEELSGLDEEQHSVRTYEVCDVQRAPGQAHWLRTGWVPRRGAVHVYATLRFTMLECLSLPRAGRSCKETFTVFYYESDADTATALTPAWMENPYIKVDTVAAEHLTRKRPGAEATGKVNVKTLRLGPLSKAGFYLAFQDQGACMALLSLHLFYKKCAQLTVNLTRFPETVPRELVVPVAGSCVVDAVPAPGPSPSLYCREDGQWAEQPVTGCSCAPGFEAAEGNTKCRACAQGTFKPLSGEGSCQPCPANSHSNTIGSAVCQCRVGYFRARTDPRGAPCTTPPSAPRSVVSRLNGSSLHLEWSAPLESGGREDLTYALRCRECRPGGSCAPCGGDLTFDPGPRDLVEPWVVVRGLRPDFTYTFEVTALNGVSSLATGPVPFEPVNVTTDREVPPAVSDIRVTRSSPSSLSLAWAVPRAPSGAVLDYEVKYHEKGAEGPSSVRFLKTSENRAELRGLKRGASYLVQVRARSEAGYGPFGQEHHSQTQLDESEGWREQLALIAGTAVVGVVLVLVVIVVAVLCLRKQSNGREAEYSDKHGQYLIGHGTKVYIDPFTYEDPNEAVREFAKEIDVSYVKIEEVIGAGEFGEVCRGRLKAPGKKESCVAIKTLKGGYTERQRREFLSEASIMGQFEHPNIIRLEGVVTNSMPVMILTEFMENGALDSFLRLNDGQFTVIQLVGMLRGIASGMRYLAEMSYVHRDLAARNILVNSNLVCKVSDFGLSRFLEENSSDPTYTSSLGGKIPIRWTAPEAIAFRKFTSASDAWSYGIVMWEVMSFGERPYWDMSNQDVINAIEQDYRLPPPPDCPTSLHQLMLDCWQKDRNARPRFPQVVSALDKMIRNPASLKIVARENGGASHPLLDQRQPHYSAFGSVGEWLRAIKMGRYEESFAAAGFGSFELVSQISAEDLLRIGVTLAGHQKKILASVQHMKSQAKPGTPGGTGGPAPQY
Briefly: Inhibition of EPHB4 (unknown origin).

Test [2] addresses T3, Receptor-type tyrosine-protein kinase FLT3 (Homo sapiens, UniProt P36888).
T3 sequence (P36888 whole entry): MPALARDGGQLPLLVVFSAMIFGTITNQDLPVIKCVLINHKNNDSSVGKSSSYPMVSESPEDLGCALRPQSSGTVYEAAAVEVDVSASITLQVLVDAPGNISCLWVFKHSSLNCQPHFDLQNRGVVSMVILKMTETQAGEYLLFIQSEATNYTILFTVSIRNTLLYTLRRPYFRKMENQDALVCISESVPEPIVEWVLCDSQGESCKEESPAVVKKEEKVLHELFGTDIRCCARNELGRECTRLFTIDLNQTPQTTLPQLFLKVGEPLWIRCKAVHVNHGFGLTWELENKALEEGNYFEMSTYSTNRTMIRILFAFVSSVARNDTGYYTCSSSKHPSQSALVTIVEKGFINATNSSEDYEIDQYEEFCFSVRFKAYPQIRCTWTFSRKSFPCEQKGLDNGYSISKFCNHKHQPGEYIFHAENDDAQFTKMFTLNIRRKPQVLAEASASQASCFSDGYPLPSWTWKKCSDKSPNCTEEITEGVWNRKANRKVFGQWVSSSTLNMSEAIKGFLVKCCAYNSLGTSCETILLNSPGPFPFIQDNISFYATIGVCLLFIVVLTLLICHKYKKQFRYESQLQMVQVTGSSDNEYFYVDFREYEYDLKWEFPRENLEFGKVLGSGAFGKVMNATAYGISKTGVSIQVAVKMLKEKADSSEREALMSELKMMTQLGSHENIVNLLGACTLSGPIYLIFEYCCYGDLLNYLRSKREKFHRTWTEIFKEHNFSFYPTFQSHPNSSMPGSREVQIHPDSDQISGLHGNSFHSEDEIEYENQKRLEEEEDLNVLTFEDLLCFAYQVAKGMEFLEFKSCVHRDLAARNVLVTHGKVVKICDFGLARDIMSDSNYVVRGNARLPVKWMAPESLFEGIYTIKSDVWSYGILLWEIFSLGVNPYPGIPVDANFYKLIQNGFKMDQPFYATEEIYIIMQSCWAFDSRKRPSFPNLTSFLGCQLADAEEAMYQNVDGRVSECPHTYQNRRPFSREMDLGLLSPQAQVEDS
As to the kind of experiment: Inhibition of FLT3 (unknown origin).

Test [3] deals with Hepatocyte growth factor receptor (Homo sapiens, UniProt P08581). As to the kind of experiment: Inhibition of MET (unknown origin).
Chain of Hepatocyte growth factor receptor (P08581 whole entry): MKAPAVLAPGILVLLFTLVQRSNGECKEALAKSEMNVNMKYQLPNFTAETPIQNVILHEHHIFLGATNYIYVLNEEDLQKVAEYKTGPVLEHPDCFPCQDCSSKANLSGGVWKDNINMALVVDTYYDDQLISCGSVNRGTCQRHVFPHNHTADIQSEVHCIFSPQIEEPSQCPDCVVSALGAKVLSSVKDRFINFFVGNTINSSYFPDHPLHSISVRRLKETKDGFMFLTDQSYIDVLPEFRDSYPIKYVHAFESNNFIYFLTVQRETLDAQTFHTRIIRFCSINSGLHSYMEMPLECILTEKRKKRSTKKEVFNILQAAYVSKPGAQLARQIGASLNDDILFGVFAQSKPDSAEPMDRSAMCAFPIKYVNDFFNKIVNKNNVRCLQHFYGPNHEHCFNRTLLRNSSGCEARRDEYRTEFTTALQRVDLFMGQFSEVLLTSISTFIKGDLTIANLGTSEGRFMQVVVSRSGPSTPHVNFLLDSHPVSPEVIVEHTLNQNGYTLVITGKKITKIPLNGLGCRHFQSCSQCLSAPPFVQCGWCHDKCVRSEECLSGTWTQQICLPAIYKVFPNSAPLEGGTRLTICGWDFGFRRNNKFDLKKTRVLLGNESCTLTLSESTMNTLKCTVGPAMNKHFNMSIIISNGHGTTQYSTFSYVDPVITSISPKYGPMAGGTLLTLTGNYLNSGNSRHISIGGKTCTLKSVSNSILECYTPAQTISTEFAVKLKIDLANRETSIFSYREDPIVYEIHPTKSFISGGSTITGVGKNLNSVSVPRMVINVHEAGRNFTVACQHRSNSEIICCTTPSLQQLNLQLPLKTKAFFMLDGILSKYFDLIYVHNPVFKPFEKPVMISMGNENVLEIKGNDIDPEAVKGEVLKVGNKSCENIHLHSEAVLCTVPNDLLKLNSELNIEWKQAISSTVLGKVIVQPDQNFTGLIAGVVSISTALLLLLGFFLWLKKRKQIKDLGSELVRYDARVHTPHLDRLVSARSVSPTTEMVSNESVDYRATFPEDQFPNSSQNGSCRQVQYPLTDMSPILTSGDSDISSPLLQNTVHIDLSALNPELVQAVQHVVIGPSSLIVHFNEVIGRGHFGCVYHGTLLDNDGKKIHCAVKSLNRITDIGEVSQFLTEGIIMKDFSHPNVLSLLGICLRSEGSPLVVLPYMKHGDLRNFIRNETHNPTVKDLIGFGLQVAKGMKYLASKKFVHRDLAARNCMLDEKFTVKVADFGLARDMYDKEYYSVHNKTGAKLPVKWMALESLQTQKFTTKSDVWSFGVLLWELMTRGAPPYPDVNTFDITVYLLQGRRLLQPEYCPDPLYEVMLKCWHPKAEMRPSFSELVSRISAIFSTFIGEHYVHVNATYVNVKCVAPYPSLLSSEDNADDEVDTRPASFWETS
The target in test [4] is Cyclin-dependent kinase 2 (Homo sapiens, UniProt P24941). As to the kind of experiment: Inhibition of CDK2 (unknown origin).
In test [5] the target is Casein kinase I isoform delta (Homo sapiens, UniProt P48730). Briefly: Inhibition of CSNK1D (unknown origin).
Chain of Casein kinase I isoform delta (P48730 whole entry, canonical isoform): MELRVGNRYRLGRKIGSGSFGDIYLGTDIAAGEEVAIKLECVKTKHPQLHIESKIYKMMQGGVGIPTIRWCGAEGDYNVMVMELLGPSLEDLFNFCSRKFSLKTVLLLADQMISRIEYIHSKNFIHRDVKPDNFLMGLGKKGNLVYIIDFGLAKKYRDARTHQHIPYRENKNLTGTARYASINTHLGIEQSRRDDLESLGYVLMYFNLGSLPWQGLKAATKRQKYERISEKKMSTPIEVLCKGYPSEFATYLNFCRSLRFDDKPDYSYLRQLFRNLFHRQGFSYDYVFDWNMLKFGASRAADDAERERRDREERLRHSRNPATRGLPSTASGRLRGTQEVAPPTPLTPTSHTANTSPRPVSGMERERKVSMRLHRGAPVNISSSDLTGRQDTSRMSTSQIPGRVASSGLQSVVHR
Test [6] has as its target Epidermal growth factor receptor (Homo sapiens, UniProt P00533). As to the kind of experiment: Inhibition of EGFR (unknown origin).
The target in test [7] is Mitogen-activated protein kinase 1 (Homo sapiens, UniProt P28482). Briefly: Inhibition of ERK2 (unknown origin).
Chain of Mitogen-activated protein kinase 1 (P28482 whole entry): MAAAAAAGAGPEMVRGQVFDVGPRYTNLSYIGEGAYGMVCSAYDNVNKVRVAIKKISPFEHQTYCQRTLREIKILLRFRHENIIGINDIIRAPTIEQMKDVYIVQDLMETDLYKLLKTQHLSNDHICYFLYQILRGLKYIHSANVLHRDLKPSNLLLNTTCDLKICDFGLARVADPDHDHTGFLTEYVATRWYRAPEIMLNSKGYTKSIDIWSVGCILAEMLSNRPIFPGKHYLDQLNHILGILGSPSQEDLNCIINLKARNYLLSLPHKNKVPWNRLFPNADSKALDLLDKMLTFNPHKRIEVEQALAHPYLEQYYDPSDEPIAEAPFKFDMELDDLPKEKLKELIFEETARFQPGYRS
Test [8] concerns the target Glycogen synthase kinase-3 beta (Homo sapiens, UniProt P49841). As to the kind of experiment: Inhibition of GSK3b (unknown origin).
The target of test [9] is Insulin-like growth factor 1 receptor (Homo sapiens, UniProt P08069). As to the kind of experiment: Inhibition of IGF1R (unknown origin).
Chain of Insulin-like growth factor 1 receptor (P08069 31-736 limits assumed): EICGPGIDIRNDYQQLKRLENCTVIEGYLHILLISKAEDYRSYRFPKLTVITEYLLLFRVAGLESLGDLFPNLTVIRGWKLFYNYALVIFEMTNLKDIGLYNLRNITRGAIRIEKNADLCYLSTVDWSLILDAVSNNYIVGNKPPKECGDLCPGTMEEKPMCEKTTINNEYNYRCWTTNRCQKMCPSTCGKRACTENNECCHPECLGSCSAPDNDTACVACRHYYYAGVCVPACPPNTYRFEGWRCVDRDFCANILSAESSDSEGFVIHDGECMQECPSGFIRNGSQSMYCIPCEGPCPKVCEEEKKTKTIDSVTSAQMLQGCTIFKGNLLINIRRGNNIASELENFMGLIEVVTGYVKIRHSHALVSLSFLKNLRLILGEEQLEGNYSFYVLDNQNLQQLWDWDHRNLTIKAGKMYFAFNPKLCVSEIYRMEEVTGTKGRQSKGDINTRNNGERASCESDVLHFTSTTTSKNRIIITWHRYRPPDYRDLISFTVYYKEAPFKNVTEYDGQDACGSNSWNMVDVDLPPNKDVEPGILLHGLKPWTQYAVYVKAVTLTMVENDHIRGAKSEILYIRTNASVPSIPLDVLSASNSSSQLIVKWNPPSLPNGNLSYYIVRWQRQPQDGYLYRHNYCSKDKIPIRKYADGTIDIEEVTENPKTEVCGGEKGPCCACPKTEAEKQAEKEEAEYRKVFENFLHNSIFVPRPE
Chain of Insulin-like growth factor 1 receptor (P08069 741-1367 limits assumed): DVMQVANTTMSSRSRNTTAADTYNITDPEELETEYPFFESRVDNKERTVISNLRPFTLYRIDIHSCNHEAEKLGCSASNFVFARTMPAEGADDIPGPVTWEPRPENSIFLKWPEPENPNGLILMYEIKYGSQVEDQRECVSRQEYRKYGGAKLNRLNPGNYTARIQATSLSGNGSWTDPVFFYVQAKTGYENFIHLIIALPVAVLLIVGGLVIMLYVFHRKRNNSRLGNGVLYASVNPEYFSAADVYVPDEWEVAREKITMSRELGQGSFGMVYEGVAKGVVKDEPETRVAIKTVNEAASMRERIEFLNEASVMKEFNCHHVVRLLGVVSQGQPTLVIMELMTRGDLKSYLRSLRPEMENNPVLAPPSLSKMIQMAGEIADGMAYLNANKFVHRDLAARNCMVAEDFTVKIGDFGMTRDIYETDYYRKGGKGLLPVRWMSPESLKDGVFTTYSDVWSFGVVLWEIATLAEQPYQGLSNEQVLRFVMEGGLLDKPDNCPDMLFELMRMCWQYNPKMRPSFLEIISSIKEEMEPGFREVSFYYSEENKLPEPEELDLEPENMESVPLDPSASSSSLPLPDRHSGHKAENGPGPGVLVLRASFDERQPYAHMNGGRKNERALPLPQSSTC
Test [10] deals with Serine/threonine-protein kinase PLK3 (Homo sapiens, UniProt Q9H4B4). As to the kind of experiment: Inhibition of PLK3 (unknown origin).

Chain of Epidermal growth factor receptor (P00533 whole entry): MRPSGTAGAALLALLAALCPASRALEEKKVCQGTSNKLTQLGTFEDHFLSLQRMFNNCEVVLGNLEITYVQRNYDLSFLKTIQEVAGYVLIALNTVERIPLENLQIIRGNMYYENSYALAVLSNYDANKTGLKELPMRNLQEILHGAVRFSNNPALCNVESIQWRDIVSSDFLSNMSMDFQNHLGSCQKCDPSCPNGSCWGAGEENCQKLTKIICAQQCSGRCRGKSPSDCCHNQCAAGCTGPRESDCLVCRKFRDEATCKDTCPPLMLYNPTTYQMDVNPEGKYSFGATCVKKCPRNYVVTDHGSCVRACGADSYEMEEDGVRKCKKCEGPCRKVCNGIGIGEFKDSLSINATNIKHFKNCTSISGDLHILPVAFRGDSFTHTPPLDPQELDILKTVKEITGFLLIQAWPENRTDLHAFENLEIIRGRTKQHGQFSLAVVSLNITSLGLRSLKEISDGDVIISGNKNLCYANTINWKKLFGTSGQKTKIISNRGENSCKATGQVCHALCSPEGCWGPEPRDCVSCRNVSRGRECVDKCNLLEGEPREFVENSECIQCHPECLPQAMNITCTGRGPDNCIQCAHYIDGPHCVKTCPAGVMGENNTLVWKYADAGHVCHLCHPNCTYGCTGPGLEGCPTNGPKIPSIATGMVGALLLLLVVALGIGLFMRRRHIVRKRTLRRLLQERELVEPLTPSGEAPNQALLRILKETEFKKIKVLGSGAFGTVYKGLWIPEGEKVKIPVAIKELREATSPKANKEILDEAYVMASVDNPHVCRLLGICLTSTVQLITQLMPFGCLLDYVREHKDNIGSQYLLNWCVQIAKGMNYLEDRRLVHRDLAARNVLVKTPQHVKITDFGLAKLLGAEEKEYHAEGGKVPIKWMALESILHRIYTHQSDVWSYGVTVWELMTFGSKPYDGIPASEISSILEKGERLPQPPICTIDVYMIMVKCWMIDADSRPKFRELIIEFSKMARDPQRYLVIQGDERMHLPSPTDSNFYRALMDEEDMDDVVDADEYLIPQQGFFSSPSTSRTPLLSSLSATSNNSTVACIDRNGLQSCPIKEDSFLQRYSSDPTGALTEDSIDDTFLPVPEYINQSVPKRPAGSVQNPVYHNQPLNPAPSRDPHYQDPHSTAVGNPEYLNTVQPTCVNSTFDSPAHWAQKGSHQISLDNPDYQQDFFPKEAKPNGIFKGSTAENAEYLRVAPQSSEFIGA

Usually EC50 stands for the concentration at which the effect is half-maximal. One may read the IC50 as the concentration that inhibits the measured activity by half. Low readings indicate inhibition by little substance, high ones a need for much substance. `Cc1cn2c(-c3cn[nH]c3)cnc2c(Nc2cc(Cc3ccccn3)ns2)n1`: at Aurora kinase B, the 50% effective concentration (EC50) turned out to be 117 nM. Besides, the half-maximal inhibitory concentration (IC50) in test [1] was 360 nM; at Ephrin type-B receptor 4, 390 nM; in test [2], 14 nM; in test [3] it was greater than 500 nM; in [4] it was greater than 500 nM; in test [5] it was greater than 500 nM. The IC50 in test [6], in test [7], in test [8], in [9] and in test [10] was greater than 500 nM in each case.
`CCN(CCO)Cc1cc(Nc2nc(C)cn3c(-c4cn[nH]c4)cnc23)sn1`: on Aurora kinase B, the EC50 stood at 24 nM. Besides, the IC50 in test [1] was 13 nM; against Ephrin type-B receptor 4, 100 nM; in test [2], 5 nM; in test [3], greater than 500 nM; in test [4], greater than 500 nM; in [5] it was greater than 500 nM. Besides, the IC50 in [6], in [7], in test [8], in test [9] and in [10] was greater than 500 nM each time.
Consider `Cc1cn2c(-c3cn[nH]c3)cnc2c(Nc2cc(C(NC(C)(C)C)c3ccccn3)ns2)n1` (single isomer, unassigned; (+)), for which the EC50 at Aurora kinase B is less than 16 nM. The IC50 in test [1] is 7 nM; against Ephrin type-B receptor 4, 38 nM; in test [2] it was 5 nM; in test [3] it was greater than 1000 nM; in test [4], greater than 1000 nM; in [5] it was greater than 1000 nM. The IC50 in test [6], in test [7], in test [8], in test [9] and in test [10] was greater than 1000 nM in each case.
